A word on the EC50: it is the concentration needed to bring the measured effect to its halfway point. A lower EC50 goes with a more potent agent.

Each structure is given as a SMILES string.

The assay addresses T1, KCC2 (Homo sapiens, UniProt Q9H2X9).
T1 construct: expressed in transfected cells; host or cells: HEK293 cells electroporated (Maxcyte STX) with the pcDNA3.1 KCC2 plasmid
T1 sequence (Q9H2X9 1-1139): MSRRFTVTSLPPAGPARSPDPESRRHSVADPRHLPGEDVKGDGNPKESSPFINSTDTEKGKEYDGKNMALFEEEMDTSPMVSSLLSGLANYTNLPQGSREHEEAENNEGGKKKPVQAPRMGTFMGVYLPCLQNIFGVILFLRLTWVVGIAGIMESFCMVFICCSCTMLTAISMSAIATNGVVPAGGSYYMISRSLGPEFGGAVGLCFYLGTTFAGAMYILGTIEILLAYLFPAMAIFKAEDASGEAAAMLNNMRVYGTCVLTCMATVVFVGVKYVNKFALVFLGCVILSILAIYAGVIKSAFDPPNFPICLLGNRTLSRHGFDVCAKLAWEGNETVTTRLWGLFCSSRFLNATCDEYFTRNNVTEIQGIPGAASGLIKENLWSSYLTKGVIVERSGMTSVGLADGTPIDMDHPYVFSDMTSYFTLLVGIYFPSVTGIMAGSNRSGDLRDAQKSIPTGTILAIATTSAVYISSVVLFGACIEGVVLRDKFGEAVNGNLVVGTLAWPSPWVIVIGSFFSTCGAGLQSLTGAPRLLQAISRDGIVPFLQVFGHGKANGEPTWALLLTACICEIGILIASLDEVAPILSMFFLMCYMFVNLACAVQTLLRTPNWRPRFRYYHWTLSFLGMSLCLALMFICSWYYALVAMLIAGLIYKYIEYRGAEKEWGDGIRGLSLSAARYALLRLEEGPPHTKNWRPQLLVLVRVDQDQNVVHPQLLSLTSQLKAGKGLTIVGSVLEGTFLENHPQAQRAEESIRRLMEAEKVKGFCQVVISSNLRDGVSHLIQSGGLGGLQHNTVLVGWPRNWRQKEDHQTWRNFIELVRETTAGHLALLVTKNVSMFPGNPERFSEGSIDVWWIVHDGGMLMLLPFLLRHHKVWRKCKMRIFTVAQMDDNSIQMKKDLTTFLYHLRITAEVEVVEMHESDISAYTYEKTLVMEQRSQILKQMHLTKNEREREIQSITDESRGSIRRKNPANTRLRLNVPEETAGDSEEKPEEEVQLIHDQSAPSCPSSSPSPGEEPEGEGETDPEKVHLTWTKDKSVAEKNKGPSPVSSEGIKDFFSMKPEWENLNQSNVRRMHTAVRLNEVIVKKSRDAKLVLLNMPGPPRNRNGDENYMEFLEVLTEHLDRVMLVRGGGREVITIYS
Briefly: KCC2 thallium transport FLIPR-based assay (Tl+ influx in HEK293 cells expressing KCC2). The following applies: 90 min compound incubation at RT, thallium flux at 120 s used to determine EC50. Type of assay: cell-based. The method in brief: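 Transient electroporation of codon-optimised human KCC2 into HEK293 cells, plated and cultured 48 h before dye loading (1 h, RT). Compounds run as a 12-point 1:2 series from 100 μM top, 90 min RT in buffer containing bumetanide; Tl+ flux read by FLIPR after stimulus addition, 1 s intervals over 120 s, with the 120 s signal used for EC50.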
`CC(C)c1ccc(Nc2nc(N3CCSC3)nc3c2CN(C(C)C)C3=O)cc1` [Example 3, 6-(propan-2-yl)-4-{[4-(propan-2-yl)phenyl]amino}-2-(1,3-thiazolidin-3-yl)-5,6-dihydro-7H-pyrrolo[3,4-d]pyrimidin-7-one]: the EC50 is 3000 nM.
As for `CC(C)N1Cc2c(Nc3ccc(C(F)(F)C(F)(F)F)cc3)nc(N3CCOC(C4CC4)C3)nc2C1=O` (centres unmarked) [Example 58, 2-(2-cyclopropylmorpholin-4-yl)-4-{[4-(pentafluoroethyl)phenyl]amino}-6-(propan-2-yl)-5,6-dihydro-7H-pyrrolo[3,4-d]pyrimidin-7-one], the figure is 3780 nM; as for `CC(C)N1Cc2c(Nc3ccc(C4CCCCC4)cc3)nc(N(C)CCc3ccccn3)nc2C1=O` [Example 37, 4-[(4-cyclohexylphenyl)amino]-2-{methyl[2-(pyridin-2-yl)ethyl]amino}-6-(propan-2-yl)-5,6-dihydro-7H-pyrrolo[3,4-d]pyrimidin-7-one], 6300 nM.
As for `C[C@@H]1CN(c2nc(Nc3ccc(C4CCCCC4)cc3)c3cc(C(N)=O)cnc3n2)CCO1` [Example 104, (R)-4-((4-cyclohexylphenyl)amino)-2-(2-methylmorpholino)pyrido[2,3-d]pyrimidine-6-carboxamide], a half-maximal effect (EC50) was put at 1630 nM.
In the case of `COC(=O)c1cnc2nc(N3CCO[C@H](C)C3)nc(Nc3ccc(C4CCCCC4)cc3)c2c1` [Example 102, methyl (R)-4-((4-cyclohexylphenyl)amino)-2-(2-methylmorpholino) pyrido[2,3-d]pyrimidine-6-carboxylate], the concentration for a half-maximal effect (EC50) is 700 nM.
With `C#CCCC1(CCOc2ccc(-c3ccc(Nc4nc(N5CCOCC5)nc5c4CN(C(C)C)C5=O)cc3)cc2)N=N1` [Example 70, 4-[(4′-{2-[3-(but-3-yn-1-yl)-3H-diaziren-3-yl]ethoxy}[1,1′-biphenyl]-4-yl)amino]-2-(morpholin-4-yl)-6-(propan-2-yl)-5,6-dihydro-7H-pyrrolo[3,4-d]pyrimidin-7-one], the EC50 is 1830 nM.
As for `CCCc1ccc(Nc2nc(N3CCOC(C4CC4)C3)nc3c2CN(C(C)C)C3=O)cc1` (centres unmarked) [Example 59, 2-(2-cyclopropylmorpholin-4-yl)-6-(propan-2-yl)-4-[(4-propylphenyl)amino]-5,6-dihydro-7H-pyrrolo[3,4-d]pyrimidin-7-one], the response was half-maximal at 4460 nM (EC50).
On to `CC1CN(c2nc(Nc3ccc(C4CCCCC4)cc3)c3c(n2)C(=O)N(C(C)C)C3)CCO1` (centres unmarked) [Example 12, 4-[(4-cyclohexylphenyl)amino]-2-(2-methylmorpholin-4-yl)-6-(propan-2-yl)-5,6-dihydro-7H-pyrrolo[3,4-d]pyrimidin-7-one], for which the EC50 came out at 1350 nM.
The figure for `CC(C)N1Cc2c(Nc3ccc(C4CCCCC4)cc3)nc(N3CCSC3)nc2C1=O` [Example 19, 4-[(4-cyclohexylphenyl)amino]-6-(propan-2-yl)-2-(1,3-thiazolidin-3-yl)-5,6-dihydro-7H-pyrrolo[3,4-d]pyrimidin-7-one] is 2040 nM; for `C[C@@H]1CN(c2nc(Nc3ccc(C4CCCCC4)cc3)c3cc(N)cnc3n2)CCO1` [Example 108, (R)—N4-(4-cyclohexylphenyl)-2-(2-methylmorpholino)pyrido[2,3-d]pyrimidine-4,6-diamine] it is 1970 nM; for `CCCCCCCOc1ccc(-c2ccc(Nc3nc(N4CCOC(C5CC5)C4)nc4c3COC4)cc2)cc1` (centres unmarked) [Example 93] it is 1410 nM.
In turn, `CC(C)c1ccc(Nc2nc(N3CCOCC3)nc3c2CN(C(C)C)C3=O)cc1` [Example 86, 2-(morpholin-4-yl)-6-(propan-2-yl)-4-{[4-(propan-2-yl)phenyl]amino}-5,6-dihydro-7H-pyrrolo[3,4-d]pyrimidin-7-one] yielded a concentration giving a half-maximal response (EC50) of 5830 nM.
`CC(C)N1Cc2c(Nc3ccc(C4CCCCC4)cc3)nc(N(C)Cc3ccon3)nc2C1=O` [Example 22, 4-[(4-cyclohexylphenyl)amino]-2-{methyl[(1,2-oxazol-3-yl)methyl]amino}-6-(propan-2-yl)-5,6-dihydro-7H-pyrrolo[3,4-d]pyrimidin-7-one]: the concentration for a half-maximal effect (EC50) was 2790 nM.
`CC(C)N1Cc2c(Nc3ccc(C4CCCCC4)cc3)nc(N(C)CC(F)F)nc2C1=O` [Example 36, 4-[(4-cyclohexylphenyl)amino]-2-[(2,2-difluoroethyl)(methyl)amino]-6-(propan-2-yl)-5,6-dihydro-7H-pyrrolo[3,4-d]pyrimidin-7-one] had an EC50 of 6300 nM.
The compound `C[C@@H]1CN(c2nc(Nc3ccc(C4CCC4)cc3)c3c(n2)C(=O)N(CCCN(C)C)C3)CCO1` [Example 74, 4-[(4-cyclobulylphenyl)amino]-6-[3-(dimethylamino)propyl]-2-[(2R)-2-methylmorpholin-4-yl]-5,6-dihydro-7H-pyrrolo[3,4-d]pyrimidin-7-one] returned an EC50 of 3700 nM.
Compound `C#CCCCCCOc1ccc(-c2ccc(Nc3nc(N4CCOC(C5CC5)C4)nc4c3CN(C(C)C)C4=O)cc2)cc1` (centres unmarked) [Example 52, 2-(2-cyclopropylmorpholin-4-yl)-4-({4′-[(hept-6-yn-1-yl)oxy][1,1′-biphenyl]-4-yl}amino)-6-(propan-2-yl)-5,6-dihydro-7H-pyrrolo[3,4-d]pyrimidin-7-one] gave an EC50 of 146 nM.
Regarding `CCN(CC)c1nc(Nc2ccc(C(C)C)cc2)c2c(n1)C(=O)N(C(C)C)C2` [Example 1, 2-(Diethylamino)-6-isopropyl-4-((4-isopropylphenyl)amino)-5,6-dihydro-7H-pyrrolo[3,4-d]pyrimidin-7-one], the midpoint of the response, the EC50, lay at 1710 nM.

For the origin of these results see patent publication US12617795B2, “Substituted 6,7-dihydro-5H-pyrrolo[3,4-d]pyrimidines, 5,7-dihydrofuro[3,4-d]pyrimidines, and pyrido[2,3-d]pyrimidines as KCC2 modulators” (Astrazeneca AB, priority 2020, dated 2026).
